This assay has as its target Met kinase (Homo sapiens, UniProt P08581). The assay is described as follows: Met kinase inhibition (cell). Format: cell-based.
Chain of Met kinase (P08581 25-1390): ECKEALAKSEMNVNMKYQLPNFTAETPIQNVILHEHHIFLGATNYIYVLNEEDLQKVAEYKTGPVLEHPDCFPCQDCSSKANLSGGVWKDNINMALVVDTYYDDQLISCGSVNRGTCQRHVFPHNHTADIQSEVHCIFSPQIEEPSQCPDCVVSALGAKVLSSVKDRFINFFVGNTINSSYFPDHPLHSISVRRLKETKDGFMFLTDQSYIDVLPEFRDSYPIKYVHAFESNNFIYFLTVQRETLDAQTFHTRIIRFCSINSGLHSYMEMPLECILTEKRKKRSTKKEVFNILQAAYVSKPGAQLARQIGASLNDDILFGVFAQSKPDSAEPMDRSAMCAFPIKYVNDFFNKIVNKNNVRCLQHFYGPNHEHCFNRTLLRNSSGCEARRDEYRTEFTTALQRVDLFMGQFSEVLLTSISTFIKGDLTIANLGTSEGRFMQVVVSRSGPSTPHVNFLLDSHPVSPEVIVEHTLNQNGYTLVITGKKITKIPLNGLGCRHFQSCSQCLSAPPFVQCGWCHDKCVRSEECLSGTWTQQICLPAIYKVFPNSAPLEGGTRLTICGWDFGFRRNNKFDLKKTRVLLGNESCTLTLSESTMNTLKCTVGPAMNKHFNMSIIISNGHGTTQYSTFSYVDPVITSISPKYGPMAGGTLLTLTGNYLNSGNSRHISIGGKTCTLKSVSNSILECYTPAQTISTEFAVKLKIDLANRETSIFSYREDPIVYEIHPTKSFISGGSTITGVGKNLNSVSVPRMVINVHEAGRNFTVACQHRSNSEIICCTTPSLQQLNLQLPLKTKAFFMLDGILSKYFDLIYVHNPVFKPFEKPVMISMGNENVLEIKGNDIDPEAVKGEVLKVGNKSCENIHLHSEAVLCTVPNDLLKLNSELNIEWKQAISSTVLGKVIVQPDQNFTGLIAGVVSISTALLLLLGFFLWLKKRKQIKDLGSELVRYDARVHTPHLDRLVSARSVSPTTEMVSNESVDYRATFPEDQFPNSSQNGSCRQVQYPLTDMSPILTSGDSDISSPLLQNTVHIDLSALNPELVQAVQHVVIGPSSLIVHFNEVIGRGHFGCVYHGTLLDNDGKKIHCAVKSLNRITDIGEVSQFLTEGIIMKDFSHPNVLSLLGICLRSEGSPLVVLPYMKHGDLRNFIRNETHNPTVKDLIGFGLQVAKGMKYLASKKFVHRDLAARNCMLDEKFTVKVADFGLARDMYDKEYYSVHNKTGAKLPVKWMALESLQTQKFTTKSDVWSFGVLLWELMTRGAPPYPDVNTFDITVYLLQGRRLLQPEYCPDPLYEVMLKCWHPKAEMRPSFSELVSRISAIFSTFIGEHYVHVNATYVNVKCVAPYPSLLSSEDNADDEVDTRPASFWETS
For the molecule `Cn1cc(-c2ccc3nnc(Cc4cccc(-c5ncc(-c6cnn(CCN7CCCC7)c6)cn5)c4)n3n2)cn1` [Compound A2, 6-(1-methyl-1H-pyrazol-4-yl)-3-(3-{5-[1-(2-pyrrolidin-1-yl-ethyl)-1H-pyrazol-4-yl]pyrimidin-2-yl}benzyl)-1,2,4-triazolo[4,3-b]pyridazine], the IC50 (commonly the concentration needed to halve the response being measured) is 1 to 100 nM.

The molecule `Cc1ccc2nnc(C(F)(F)c3cccc(-c4ncc(OCCN5CCOCC5)cn4)c3)n2n1` [Compound A28, 3-(difluoro-{3-[5-(2-morpholin-4-ylethoxy)pyrimidin-2-yl]-phenyl}methyl)-6-methyl-1,2,4-triazolo[4,3-b]pyridazine] came in with an IC50 of 1 to 100 nM.

In turn, `CN1CCC(COc2cnc(-c3cccc(C(F)(F)c4nnc5ccc(-c6cnn(C)c6)nn45)c3)nc2)CC1` [Compound A42, 3-(difluoro-{3-[5-(1-methylpiperidin-4-ylmethoxy)pyrimidin-2-yl]-phenyl}methyl)-6-(1-methyl-1H-pyrazol-4-yl)-1,2,4-triazolo[4,3-b]pyridazine] yielded an IC50 of 1 to 100 nM.

`COc1cnc(-c2cccc(Cc3nnc4ccc(-c5cnn(C)c5)nn34)c2)nc1` [Compound A35, 3-[3-(5-methoxypyrimidin-2-yl)benzyl]-6-(1-methyl-1H-pyrazol-4-yl)-1,2,4-triazolo[4,3-b]pyridazine] returned an IC50 of 1 to 100 nM.

`COCCOc1cnc(-c2cccc(C(F)(F)c3nnc4ccc(-c5cnn(C)c5)nn34)c2)nc1` [Compound A31, 3-(difluoro-{3-[5-(2-methoxyethoxy)pyrimidin-2-yl]phenyl}methyl)-6-(1-methyl-1H-pyrazol-4-yl)-1,2,4-triazolo[4,3-b]pyridazine]: the IC50 lay within 1 to 100 nM.

With `Cn1cc(-c2ccc3nnc(Cc4cccc(-c5ncc(O)cn5)c4)n3n2)cn1` [Compound A30, 2-{3-[6-(1-methyl-1H-pyrazol-4-yl)-1,2,4-triazolo[4,3-b]pyridazin-3-yl-methyl]phenyl}pyrimidin-5-ol], the IC50 lay in the range of 100 to 10000 nM.

As for `Cn1cc(-c2ccc3nnc(C(F)(F)c4cccc(-c5ncc(OCCO)cn5)c4)n3n2)cn1` [Compound A32, 2-[2-(3-{difluoro-[6-(1-methyl-1H-pyrazol-4-yl)-1,2,4-triazolo[4,3-b]pyridazin-3-yl]methyl}phenyl)pyrimidin-5-yloxy]ethanol], the IC50 lay in the range of 1 to 100 nM.

In turn, `COCCCOc1cnc(-c2cccc(Cc3nnc4ccc(-c5cnn(C)c5)nn34)c2)nc1` [Compound A36, 3-{3-[5-(3-methoxypropoxy)pyrimidin-2-yl]benzyl}-6-(1-methyl-1H-pyrazol-4-yl)-1,2,4-triazolo[4,3-b]pyridazine] registered an IC50 of 1 to 100 nM.

`COCCOc1cnc(-c2cccc(Cc3nnc4ccc(-c5cnn(C)c5)nn34)c2)nc1` [Compound A33, 3-{3-[5-(2-methoxyethoxy)pyrimidin-2-yl]benzyl}-6-(1-methyl-1H-pyrazol-4-yl)-1,2,4-triazolo[4,3-b]pyridazine] yielded an IC50 of 100 to 10000 nM.

`CN1CCN(CCOc2cnc(-c3cccc(Cc4nnc5ccc(-c6cnn(C)c6)nn45)c3)nc2)CC1` [Compound A37, 3-(3-{5-[2-(4-methylpiperazin-1-yl)ethoxy]pyrimidin-2-yl}benzyl)-6-(1-methyl-1H-pyrazol-4-yl)-1,2,4-triazolo[4,3-b]pyridazine]: the IC50 was in the range of 1 to 100 nM.

`Cc1cnc(-c2cccc(Cc3nnc4ccc(-c5cnn(CCO)c5)nn34)c2)nc1` [Compound A44, 2-(4-{3-[3-(5-methyl-pyrimidin-2-yl)benzyl]-1,2,4-triazolo[4,3-b]pyridazin-6-yl}pyrazol-1-yl)ethanol]: the IC50 was in the range of 1 to 100 nM.

The molecule `Cn1cc(-c2ccc3nnc(Cc4cccc(-c5ncc(OCCO)cn5)c4)n3n2)cn1` [Compound A34, 2-(2-{3-[6-(1-methyl-1H-pyrazol-4-yl)-1,2,4-triazolo[4,3-b]pyridazin-3-ylmethyl]-phenyl}pyrimidin-5-yloxy)ethanol] gave an IC50 of 1 to 100 nM.

(Values after US8497266B2, “3-(3-pyrimidin-2-ylbenzyl)-1,2,4-triazolo[4,3-b]pyridazine derivatives as MET kinase inhibitors” (Merck Patent GmbH, priority 2008, dated 2013).)
